# Data from patent US20060292255A1, “Pharmaceutical and therapeutic compositions derived from Garcinia mangostana L plant” (priority 2004, published 2006).
# Key:
# [1] = system: L-929 mouse fibroblast cells; experiment: Toxicity Study 1: cytotoxicity of serially diluted extract, microscopic scoring; assay type: cell-based; settings: control media/extracts undiluted; triplicate wells
# Procedure: The purpose of this study was to evaluate an extract of mangosteen for its level of cytotoxicity in a mammalian system. Accordingly, a serially diluted extract of a 10% mangosteen pericarp test article for cytotoxicity to mammalian cells in culture (L-929 mouse fibroblast cells, from the American Type Culture Collection: CCL-1). The test article, originally a 10% mangosteen preparation) was incubated in an appropriate volume of cell culture medium (Earle's Minimal Essential Medium, E-MEM) in a sterile vessel for 24 to 25 hours at 37 ±1° C. At the end of the extraction period, the extract was decanted from the test article. A series of eight (8) dilutions of the extract was prepared in culture medium in a two-fold dilution sequence. After the dilutions were prepared, the maintenance culture medium was removed from test culture wells and replaced with 1 ml of article test dilutions. […] The cultures were evaluated for cytotoxic effects by microscopic examination at 24, 48, and 72±4 hours of incubation, and the results scored and recorded. […]
# Criteria for evaluating cytotoxicity included morphologic changes in cells, such as granulation, crenation, or rounding, and loss of viable cells from the monolayer by lysis or detachment. […] Degrees of toxicity are scored according to the scheme in Table 2: […]
# [2] = system: mammalian cells in culture; experiment: Toxicity Study 2: cytotoxicity of serially diluted extract, microscopic scoring; assay type: cell-based; settings: control media/extracts undiluted
# Procedure: The purpose of this study was to evaluate a serially diluted extract of a 40% mangosteen pericarp test article for cytotoxicity to mammalian cells in culture. The test article was incubated in an appropriate volume of E-MEM in a sterile vessel for 24 to 25 hours at 37 f 1° C. After measures were taken to create a clear supernatant, a series of eight (8) dilutions of the extract were prepared in E-MEM in a two-fold dilution sequence. After the dilutions were prepared, the maintenance culture media was removed from test culture wells and replaced with 1 ml of test media dilutions in triplicate wells. The positive control media, test article extract, and control extracts were added at the same time to the culture plate in triplicate wells. The plates were incubated for 72 hours at 37±1° C. in a humidified atmosphere of 5±1% CO2 in air. The cultures were evaluated for cytotoxic effects by microscopic examination at 24,48 and 72±4 hours of incubation and the results scored and recorded. After the 24 hour extraction the liquid was transferred to a 50 mL conical tube and centrifuged for 10 minutes at 3000 rpm. A small pellet of powder created by the separation was discarded, the resultant supernatant was clear with a light brown color and a pH of 7.5.
# Criteria for evaluating cytotoxicity included morphologic changes in cells, such as granulation, crenation, or rounding, and loss of viable cells from the monolayer by lysis or detachment. The validity of the test requires that negative control cultures maintain a healthy normal appearance throughout the duration of the test. Degrees of toxicity are scored as in Table 1, above: […]
# [3] = system: cAMP phosphodiesterase; settings: Chairungsrilerd and Takeuchi et al., 1996; cited from earlier work
# [4] = target: COX 1 (Homo sapiens, UniProt P23219); settings: Nakatani et al., 2002, 2004; cited from earlier work
# Sequence of COX 1 (P23219 24-599): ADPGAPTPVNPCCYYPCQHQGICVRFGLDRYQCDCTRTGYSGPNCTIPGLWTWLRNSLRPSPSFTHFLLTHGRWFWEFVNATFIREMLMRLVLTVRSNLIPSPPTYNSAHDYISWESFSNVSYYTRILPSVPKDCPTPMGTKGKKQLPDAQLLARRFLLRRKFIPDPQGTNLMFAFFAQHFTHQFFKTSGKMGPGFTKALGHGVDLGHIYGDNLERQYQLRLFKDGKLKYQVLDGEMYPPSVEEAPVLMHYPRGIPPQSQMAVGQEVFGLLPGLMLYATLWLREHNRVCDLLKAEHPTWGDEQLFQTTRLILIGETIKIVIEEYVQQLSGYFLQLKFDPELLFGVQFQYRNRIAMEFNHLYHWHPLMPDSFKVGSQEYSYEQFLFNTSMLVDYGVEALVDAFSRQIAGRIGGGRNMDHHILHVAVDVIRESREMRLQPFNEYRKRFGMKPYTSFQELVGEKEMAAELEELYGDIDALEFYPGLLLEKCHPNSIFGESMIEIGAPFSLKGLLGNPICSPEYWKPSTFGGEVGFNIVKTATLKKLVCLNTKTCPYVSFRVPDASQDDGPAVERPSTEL
# [5] = system: DNA topoisomerase; settings: Tosa et al., 1997; cited from earlier work
# [6] = system: serotonin receptors; settings: Chairungsrilerd et al., 1996, 1998; cited from earlier work
smiles,measurement,setting,value
"[Cl][Cd][Cl] [Positive Control, CdCl2]",Cytotoxicity Scores at 72 Hr,[1],4/4/4
same,Cytoxicity Scores 24 Hr,[2],4/4/4
same,Cytoxicity Scores 48 Hr,[2],4/4/4
same,Cytoxicity Scores 72 Hr,[2],4/4/4
COc1c(O)cc2oc3cc4c(c(O)c3c(=O)c2c1CC=C(C)C)CC(O)C(C)(C)O4 (centres unmarked) [Mangostanol],inhibition of cAMP phosphodiesterase,[3],strong inhibition
CC(C)=CCc1c(O)cc2oc3cc(O)c(O)c(CC=C(C)C)c3c(=O)c2c1O [gamma-mangostin],inhibition of the activity of cyclooxygenase COX 1,[4],directly inhibit the activity
same,inhibition of DNA topoisomerase,[5],inhibits
same,action on serotonin receptors,[6],antagonist
